# Laboratory results published in patent US20220324958A1, “ANTI-INFLAMMATORY PEPTIDES, PHARMACEUTICAL COMPOSITION CONTAINING SUCH PEPTIDES, AND USES THEREOF” (INSTITUTO BUTANTAN, priority 2019, published 2022).
# B1: YAIGYSSKDYKGGGGEEQTHFHFESPKLISFKVQDYWILNDIMKKNLTGISLKSEEEDADSGEID (peptide)
# chain: YAIGYSSKDYKGGGGEEQTHFHFESPKLISFKVQDYWILNDIMKKNLTGISLKSEEEDADSGEID
# modifications: Designated peptide based on the motif of a group of proteins called hemoline from lepidoptera acting as an anti-inflammatory molecule
# Assays:
# [1] = system: human chondrocytes (NHAC-kn); assay: Pro-inflammatory model of chondrocytes treated with IL-1β, cytokine release (Multiplex); format: cell-based; conditions: chondrocytes treated with IL-1β (1 ng/mL)
# Procedure: Values were obtained from each analyte in pg/mL from treatment with the peptides in the presence of IL-1β (1 ng/mL). The data are presented as the mean±MSE (* p<0.05 when compared to the control with IL-1β, test t, n=3).
# (B) Chondrocytes were pretreated for 1 hour with IL-1β (1 ng/mL) before the addition of peptides (200 nM, 500 nM, and 1.25 μM) and an additional incubation of 24 hours before collecting the supernatants.
# The primary human chondrocytes used in this assay were purchased from Lonza: Normal Human Articular Primary chondrocytes (NHAC-Kn, #CC-2550, Lot 8F3336). Chondrocyte cell culture was performed in bottles (Sarstedt T175 and T75). The cells were cultivated in DMEM culture medium (Sigma) supplemented with 10% fetal bovine serum (FBS) (Sigma), incubated in an oven at 37° C. and 5% CO2, and cultures were used in the sixth passage. The culture medium was changed every two days until the culture reached 80% confluence.
# The identification and quantitative analysis of the cytokines present in the peptide treatment supernatant were performed using the Luminex xMAP Milliplex MAP Human Cytokine/Chemokine Magnetic Bead Panel Catalog #HCYTOMAG-60K technology, according to the manufacturer's instructions.
# Values were obtained from each analyte in pg/mL from treatment with the peptides in the presence of IL-1β (1 ng/mL). The data are presented as the mean±MSE (*p<0.05 when compared to the control with IL-1β, test t, n=3).
# [2] = system: neurons obtained from SHSY5Y cells; assay: Anti-nociceptive/anti-inflammatory model, neurons stimulated with glycated collagen (GC): substance P and β-endorphin in supernatant; format: cell-based; conditions: peptide 200 nM incubated 3 hours after GC (100 μg/mL)
# Procedure: ANOVA and Dunnet * p<0.05; ** p<0.01 compared to glycated collagen (GC);
# ANOVA and Dunnet * p<0.05 ** p<0.01, *** p<0.001 compared with GC;
# The differentiation process consists of 6 stages distributed over 7 days. On the first day of the differentiation protocol (day 0), cells were seeded in collagen-coated plates. On days 1, 3, and 4 the culture medium was removed, and the differentiation medium containing 2% fetal bovine serum (FBS) and retinoic acid (RA) 10 μM) was added. On day 5, the medium was removed and the culture was incubated with culture medium and brain-derived neurotrophic factor (BDNF) (50 ng/mL). On day 7 of the differentiation process, differentiated neurons are fully ready for use (Agholme et al., 2010, with some modifications).
# 7×10^3 neurons/well were incubated with 10 μM of morphine (inhibitory response control) or peptides (200 nM and 500 nM) 3 hours before or 3 hours after incubation with IL-1β (10 ng/mL) or glycated collagen (GC) (100 μg/mL) (both positive controls for the release of substance P). After 24 hours of incubation, the cell viability assay and the detection of substance P and β-endorphin in the supernatant were performed. Multiplex with magnetic spheres (MILLIPLEX® MAP Magnetic Bead Panel)
# ANOVA and Dunnet * p<0.05; ** p<0.01 compared to GC.
# ANOVA and Dunnet * p<0.05 ** p<0.01, *** p<0.001 compared to GC.
Molecule,"anti-inflammatory activity (release of G-CSF, GM-CSF, IL-6, IL-8, MCP-1, TNF-α) [1]",production of Substance P [2],production of β-endorphin [2]
IWTKDGKAIT (Designated peptide based on the motif of a group of proteins called hemoline from lepidoptera acting as an anti-inflammatory molecule) [L1],anti-inflammatory activity,,
QPEISWTRNK (Designated peptide based on the motif of a group of proteins called hemoline from lepidoptera acting as an anti-inflammatory molecule) [L6],anti-inflammatory activity,,
VWRKNGKKVS (Designated peptide based on the motif of a group of proteins called hemoline from lepidoptera acting as an anti-inflammatory molecule) [L3],anti-inflammatory activity,,
SWLKNGREFR (Designated peptide based on the motif of a group of proteins called hemoline from lepidoptera acting as an anti-inflammatory molecule) [L5],anti-inflammatory activity,,
RWLKDGQAFH (Designated peptide based on the motif of a group of proteins called hemoline from lepidoptera acting as an anti-inflammatory molecule) [L8],anti-inflammatory activity,,
B1,,significantly inhibited,increased
